Measured values: patent publication US12344584B2, “KCNQ potentiators” (Eli Lilly and Company, priority 2019, dated 2025)
Where two headings read alike, the source gives them in different places.

Experiments:
[1] = target: T1, hKv7.2 and hKv7.3 (Kv7.2/7.3) (Homo sapiens, UniProt O43525+O43526); test: Modulation of Kv7.2/7.3 conductance, automated electrophysiology (IonWorks Barracuda, population patch clamp) in HEK293 cells; assay type: cell-based; design: Voltage Shift ([…]V0.5), Mean: unit not given here; details: for Maximal Shift (efficacy) / Slope / EC50: 4-parameter logistic fit of voltage shift data; for EC50: read-out: EC50 (potency of V0.5 shift)
T1 construct: host or cells: HEK293
Method: Modulation of Kv7.2/7.3 Conductance by Kv7 Potentiators in a Mammalian Expression System
The potency and efficacy of Kv7 potentiators is assessed by automated electrophysiology on the IonWorks Barracuda (Molecular Devices) platform using the population patch clamp mode of the instrument.
Cell Culture: HEK293 cells stably expressing hKv7.2 (under tetracycline induction) and hKv7.3 (Catalog #CT6147, Charles River) are used for these studies. Cells are maintained in a Dulbecco's modified Eagle's medium/nutrient mixture Ham's F-12 (Sigma-Aldrich) supplemented with 5% tetracycline-screened fetal bovine serum (Sigma-Aldrich), 15 mM HEPES, 500 μg/mL G418, 100 U/mL penicillin, 100 μg/mL streptomycin, […] L-glutamine, 100 μg/mL zeocin, and 5 μg/mL blasticidin. Expression of hKv7.2 is induced by addition of 1 μg/mL doxycycline 24 h prior to recordings.
Cells are cultured in Corning T-150 flasks to a confluence of 85%-95%. At the start of an experiment, cells are washed once with D-PBS without calcium and magnesium and then dissociated by incubating in 3 ml of 0.25% trypsin for 8 min at 37° C. Cells ware resuspended in media, triturated gently, and centrifuged for 4 min at 1,000 rpm. Cells are resuspended in external solution to a final concentration of 2.5-3.5M cells/mL.
Solutions: External solution w is composed of (in mM): 140 NaCl, 5 KCl, 2 CaCl2, 1 MgCl2, 10 HEPES, 10 Glucose, pH 7.4. Internal solution is composed of (in mM): 90 K-gluconate, 40 KCl, 3.2 EGTA, 3.2 MgCl2, 5 HEPES, pH 7.25. The membrane perforating agent amphotericin B is prepared daily as a 27 mg/mL stock solution in DMSO and then added to the internal solution to a final concentration of 0.1 mg/mL. Test article dilutions are prepared in 384-well plates from 10 mM DMSO stock solutions and diluted using acoustic dispensing (Labcyte ECHO®), such that final DMSO concentrations are 0.1%.
Electrophysiological Recordings: Resuspended cells are placed on the IONWORKS® BARRACUDA™ (IWB) instrument, external solution is added to a 384-well patch plate, and a hole test is performed to determine blocked wells and offset voltages. Cells are then added to the patch plate (9 μL per well) by the instrument. Two seal tests are performed prior to introducing the perforating agent amphotericin in the internal solution and allowing approximately 8 min to obtain electrical access, which is verified by a third seal test. The command voltage protocol consists of a family of 1 sec voltages steps from −80 mV to +40 mV from a holding potential of −80 mV and is applied prior to (baseline) and 6 min after test article addition.
Data Analysis: Data are acquired and leak subtracted using IWB software. Current amplitudes during the last 10 msec of each voltage step are averaged and exported. Further analysis is performed using Microsoft Excel and GraphPad Prism. Current amplitude is converted to conductance (G) by the following formula: G=I/(V−Ek) where I=current, V=step potential, Ek=potassium reversal potential (−84 mV). Conductance in the presence of test article is normalized to the baseline conductance at +40 mV for the same well. Conductance-voltage (G−V) curves are fitted with the Boltzmann equation y=Bottom+(Top−Bottom)/(1+EXP((Vm−V0.5/k)).
Fitting a 4-parameter logistic equation to the data may be used to determine the potency (EC50) and efficacy (maximal shift) for each test compound.

[2] = test system: motor neurons derived from ALS patient iPSC line with pathogenic repeat expansion mutation in C9orf72; test: Optopatch excitability assay in motor neurons derived from ALS patient iPSC line (C9orf72 repeat expansion); assay type: cell-based; details: Homo sapiens, read-out: EC50, inhibition of excitability (action potential frequency)
Text: (§1) Optopatch Excitability Assay for Example 1 in Motor Neurons Derived From ALS Patient iPSC Lines
(§2) Altered excitability of cortical neurons and lower motor neuron is an important factor in the pathophysiology of ALS (See, for example, K. Kanai, et. al., J Neurol Neurosurg Psychiatry, 83, 734-738 (2012); P. Menon, et. al., Eur Neurol., 24, 816-824 (2017)). All-optical electrophysiology (“Optopatch”) was used to evaluate excitability in cultured motor neurons derived from iPSC lines from two ALS patients with different pathogenic mutations.
(§3) Cell Culture: The two iPSC lines are derived from one patient with a pathogenic mutation in TARDBP and one patient with a pathogenic repeat expansion mutation in C9orf72, respectively. Motor neurons are generated from these lines by a 2D differentiation method adapted from the dual SMAD inhibition neuronal patterning protocol (See S. M. Chambers, et. al., Nat Biotechnol., 27, 275-280 (2009)) by inclusion of motor neuron morphogens. Differentiation is verified by visual inspection, karyotyping and staining for beta-III-tubulin and the nuclear motor neuron marker ISL1. Neurons are cultured on a monolayer of mouse glia in mTeSR (Stem Cell Technologies), supplemented with 10 ng/mL BDNF. Forty-eight hours prior to imaging, 100 nM trans-retinal was added to the medium.
(§4) Transduction with Optopatch vectors: At 15 days in vitro, cultured motor neurons are transduced with a lentiviral vector to drive the co-expression of the actuator CheRiff-mOrange2 and the voltage indicator QuasAr3-Citrine (for details see D. R. Hochbaum, et. al., Nat. Methods, 11, 825-833 (2014)). Forty-eight hours prior to imaging, 100 nM trans-retinal was added to the medium.
Solutions: Recordings are performed in Brainphys™ imaging buffer with 3 mM potassium. […]
Optopatch Recordings: Five days after transduction, Optopatch imaging is performed on a custom, ultra-widefield fluorescence microscope at RT. Motor neurons are illuminated with red laser excitation (200 W/cm^2; 635 nm) to monitor changes in QuasAr fluorescence and blue LED excitation (0-127 mW/cm^2, 470 nm) to depolarize the cell membrane with CheRiff. […] Optopatch data are recorded using a Hamamatsu ORCA-Flash 4.0 sCMOS camera with a 1 kHz frame rate. […]
Data Analysis: Image segmentation analysis is performed using temporal Principle Component Analysis and spatial-temporal Independent Component Analysis to isolate individual neurons. A spike-finding algorithm is used to find action potentials, and data are analyzed for compound effects on mean firing rate, adaptation, rheobase and action potential waveform shape by comparing to vehicle controls (for detail, see C. A. Werley, et. al., Curr. Protoc. Pharmacol., 78, 11.20.1-11.20.24. (2017)). […]

[3] = test system: motor neurons derived from ALS patient iPSC line with pathogenic mutation in TARDBP; test: Optopatch excitability assay in motor neurons derived from ALS patient iPSC line (TARDBP mutation); assay type: cell-based, human; details: Homo sapiens, iPSC, TARDBP line, blue LED 5.1 mW/cm^2, mean, read-out: EC50, inhibition of excitability (action potential frequency)
Text: as §1, §2, §3, §4
Solutions: Recordings are performed in Brainphys™ imaging buffer with 3 mM potassium. The gap junction blocker 2-aminoethoxydiphenyl borate (50 μM) is added to eliminate electrical coupling between cells, and NBQX (10 μM), gabazine (20 μM), and AP5 (25 μM) were used to block synaptic transmission.
Optopatch Recordings: Five days after transduction, Optopatch imaging is performed on a custom, ultra-widefield fluorescence microscope at RT. Motor neurons are illuminated with red laser excitation (200 W/cm^2; 635 nm) to monitor changes in QuasAr fluorescence and blue LED excitation (0-127 mW/cm^2, 470 nm) to depolarize the cell membrane with CheRiff. A custom blue light stimulus protocol is used consisting of: i) 2 sec of red illumination only to monitor spontaneous activity, ii) 5×500 msec steps of increasing blue light intensity and iii) 2×2 sec linearly increasing blue light ramps, each with a different maximum blue intensity. Optopatch data are recorded using a Hamamatsu ORCA-Flash 4.0 sCMOS camera with a 1 kHz frame rate. The field of view size is 4 mm×0.5 mm. Custom control software written in MATLAB is used to control illumination protocols and record all movies. To examine acute effects of Kv7.2/7.3 potentiators, neurons are incubated with test compound for 15 min prior to imaging.
Data Analysis: Image segmentation analysis is performed using temporal Principle Component Analysis and spatial-temporal Independent Component Analysis to isolate individual neurons. A spike-finding algorithm is used to find action potentials, and data are analyzed for compound effects on mean firing rate, adaptation, rheobase and action potential waveform shape by comparing to vehicle controls (for detail, see C. A. Werley, et. al., Curr. Protoc. Pharmacol., 78, 11.20.1-11.20.24. (2017)).
Subjected to the protocol described above, the primary effect of the Example 1 is on the action potential firing rate in response to low intensity blue light illumination.
Fitting a 4-parameter logistic equation to the data may be used to determine the potency (EC50) of the effect of Example 1 on action potential frequency. Results are shown in Table 1 for two separate differentiation efforts each for the lines derived from the patients carrying the TARDBP and C9orf72 mutations.

peripheral axons = test: Threshold tracking of peripheral nerve excitability in anesthetized rats; assay type: in vivo; details: rat, dosed 45 min after Example 1 at 30 mg/kg
Method: Threshold Tracking to Measure the Effects of Example 1 at 3.10 and 30 mg/kg IP on Peripheral Nerve Excitability
Threshold tracking is a non-invasive technique that allows measurement of the excitability properties of peripheral axons by providing information about their membrane potential and ion channel function.
16 male Wistar rats from Charles River, weighing between 307-446 g ware used. Animals are group housed with standard housing conditions (4 per cage, 07:00 h to 19:00 h light phase, constant temperature (21° C.) and humidity, and free access to food and water, as well as environmental enrichment).
Rats are anesthetized with isoflurane (2-2.5%, O2 at 0.5 L/min) and then placed on their back on a heating pad to keep the tail temperature above 32° C. The placement of the ring electrodes are marked out and the marked sections of the tail are scraped with a blade to remove hair and the top layer of skin. The sites are cleaned with water and dried, allowing fora good conduction between the skin and the sticky electrodes.
A sticky ring stimulating electrode (+ve anode) is wrapped around the foot. A second sticky ring stimulating electrode (−ve cathode) is wrapped 1.5 cm from the base of the tail. A needle recording electrode is placed just off center on the top of the tail, 6 cm distal to the stimulating cathode at the base of the tail. A needle reference electrode is placed just off center on the top of the tail, 2 cm distal to the recording electrode. A sticky ground electrode is wrapped around the tail 2 cm proximal from the recording electrode.
• Start the Multitrack program (description below) and Spike. • Record 15 min of stable baseline • After the 15 min, dose with Example 1 or HEC • Take blood spot for PK at the following: • 10 min post dose • 20 min post dose • 30 min post dose • 40 min post dose • 45 min after IP (intraperitoneal) dosing with Example 1, dose XE-991 (XE-991 is a commercially available compound that blocks KCNQ potentiator effects in a formalin assay in vivo—see Y. Zheng, et al., “Activation of peripheral KCNQ channels relieves gout pain,” Pain, 156 (2015) 1025-1035; and R. Zaczek, et al., “Two New Potent Neurotransmitter Release Enhancers, 10,10-Bis(4-Pyridinylmethyl)-9(10H)-Anthracenone and 10,10-Bis(2-Fluoro-4-Pyridinylmethyl)-9(10H)-Anthracenone: Comparison to Linopirdine” The Journal of Pharmacology and Experimental Therapeutics, 285:724-730, 1998. • (XE-991 is only dosed after Example 1 at 30 mg/kg) • Take blood spot for PK at the following: • 10 min post dose (55 min post Example 1 administration) • 20 min post dose (65 min post Example 1 administration) • 30 min post dose (75 min post Example 1 administration) • 40 min post dose (85 min post Example 1 administration)
In threshold tracking assay to measure the excitability properties of peripheral axons studies in rat, compound is administered by IP at 3, 10 or 30 mg/kg using 1% hydroxyethylcellulose: 0.25% polysorbate 80:0.05% antifoam:purified water (HEC) formulation. Dry blood spots (DBS) are collected around 10, 20, 30 and terminal 40 min post-dose. DBS samples are dried at RT for around 2 h. Brain samples are obtained at terminal time point and frozen until analysis. DBS samples are shipped and stored at RT.

[4] = 10 μM, difference from control in voltage at half-maximal conductance

Row | SMILES | Voltage Shift ([…]V0.5), Mean ([1]; 0.0005 μM) | Voltage Shift ([…]V0.5), Mean ([1]; 0.0015 μM) | Voltage Shift ([…]V0.5), Mean ([1]; 0.005 μM) | Voltage Shift ([…]V0.5), Mean ([1]; 0.01 μM) | Voltage Shift ([…]V0.5), Mean ([1]; 0.04 μM) | Voltage Shift ([…]V0.5), Mean ([1]; 0.12 μM) | Voltage Shift ([…]V0.5), Mean ([1]; 0.37 μM) | Voltage Shift ([…]V0.5), Mean ([1]; 1.11 μM) | Voltage Shift ([…]V0.5), Mean ([1]; 3.33 μM) | Voltage Shift ([…]V0.5), Mean [1, 4] | Maximal Shift (efficacy) [1] | Slope [1] | EC50 [1] | EC50 ([2]; Diff 1, blue LED 5.1 mW/cm^2, mean) | EC50 ([2]; Diff 2, blue LED 5.1 mW/cm^2, mean) | EC50 ([3]; Diff 1) | EC50 ([3]; Diff 2) | reversal of the Example 1 induced increase in absolute threshold (peripheral axons)
1 | O=C(NCc1ccnc(OCC(F)(F)F)c1)NCC(O)C1(C(F)(F)F)CC1 (single isomer, unassigned) [Example 2, (+)-1-[2-hydroxy-2-[1-(trifluoromethyl)cyclopropyl]ethyl]-3-[[2-(2,2,2-trifluoroethoxy)-4-pyridyl]methyl]urea and (−)1-[2-hydroxy-2-[1-(trifluoromethyl)cyclopropyl]ethyl]-3-[[2-(2,2,2-trifluoroethoxy)-4-pyridyl]methyl]urea] | 6.1 | 4.1 | 5.0 | 4.1 | 7.4 | 2.9 | −1.9 | −10.6 | −23.0 | −25.8 | −28 | 1.3 | 1100 nM |  |  |  |  | 
2 | O=C(NCCC1(C(F)(F)F)CC1)NCc1ccnc(OCC(F)(F)F)c1 [Example 3, 1-[[2-(2,2,2-trifluoroethoxy)-4-pyridyl]methyl]-3-[2-[1-(trifluoromethyl)cyclopropyl]ethyl]urea] | 3.9 | 0.1 | 1.9 | −1.8 | −4.4 | −11.0 | −19.6 | −21.9 | −23.9 | −21.9 | −23 | 1.1 | 100 nM |  |  |  |  | 
3 | CCOC(=O)Nc1ccc(NCc2ccc(F)cc2)nc1N [Flupirtine, flupirtine, reference compound] |  |  |  |  |  |  |  |  |  |  |  |  |  | 1660 nM | 1350 nM | 1150 nM | 840 nM | 
4 | O=C1c2ccccc2C(Cc2ccncc2)(Cc2ccncc2)c2ccccc21 [XE-991, reference compound] |  |  |  |  |  |  |  |  |  |  |  |  |  |  |  |  |  | able to reverse this increase
